Results as given in EP0306300B1, “Pyrrolo(1,2-a)imidazole and imidazo(1,2-a)pyridine derivatives and their use as 5-lipoxygenase pathway inhibitors” (SMITHKLINE BEECHAM CORPORATION, priority 1987, dated 1989).
Like-named read-outs stand apart in the source and are kept apart here.

Experiments:
[1] = Log D determination by high pressure liquid chromatography; assay type: physicochemical; settings: hplc ods, mobile phase MeOH:H2O, pH 7.4, read-out: (Log D) (Lipophilicity)
Procedure: The procedure used to determine the log D's listed on Table VI was as follows. A 20 »l sample was injected into a Shandon Hypersil ODS, 5» (100 mm x 4.6 mm ID) column and was eluted using a mobile phase of […] MeOH:H₂O (The aqueous portion was .01 M in KH₂PO₄ and adjusted to pH 7.4 with KOH after mixing the MeOH), at a flow rate of 2 ml per minute. Eluting peaks were detected by UV absorbance at […]. All samples were made up at 0.1 mg/ml. (Retentions were identical at 0.01 mg/ml.)
The data was analyzed by determining the regression line corresponding to the log k′ vs. literature log P of the reference standards.
The reference standards and their literature log P's included NaNO₂, 0.0; acetanalide, 1.16; acetophenone, 1.66; anisole, 2.08; chlorobenzene, 2.84; benzophenone, 3.18; anthracene, 4.45; and pentachlorobenzene, 5.12.

[2] = system: Eicosanoid Production in Human Whole Blood; test: Inhibition of eicosanoid production following calcium ionophore stimulation in human whole blood; assay type: cell-based; settings: human blood stimulated with calcium ionophore
Procedure: The eicosanoids, which include the 5-lipoxygenase products LTB , transLTB₄, 20-hydroxyLTB₄, 5-HETE, and the 12-lipoxygenase product are extracted from the whole blood following A23187 calcium ionophore stimulation. The extracts are separated by reverse phase high pressure liquid chromatography and quantified by absorbance methods.
Venous human blood is collected into polypropylene tubes containing 1% heparin. The blood is then aliquoted into 4.5 ml volumes and preincubated at 37°C for 10 minutes in polypropylene tubes (15 ml size). Compound or carrier (50 »L dimethylsulfoxide) is added 5 minutes prior to stimulation. Calcium ionophore (0.5ml) is added, and the blood incubated for 10 minutes. Prostaglancin B₂(1 nmole) is added, and the blood extracted as described below.
The samples are centrifuged at 1000xg for 15 minutes at 5°C. The plasma is collected, and one volume of methanol is added to the plasma. This suspension is then centrifuged at 1000xg for ten minutes at 5°C. The supernatant is collected and diluted with 1.5 volumes of chilled aqueous 1% formic acid: 1% triethylamine. This mixture is loaded onto a preconditioned J.T. Baker C18 SPE cartridge (Phillipsburg, NJ) at a flow rate of 1-2 ml/minute. (The cartridge is preconditioned according to manufacture's recommendations.) The absorbed sample is washed in the following order with three (3) ml each of (i) aqueous 1% formic acid: 1% triethylamine; (ii) petroleium ether; and (iii) 20% acetonitrile: 1% triethylamine.
The eicosanoids are eluted in 3ml of 70% acetonitrile: 1% triethylamine. The solvent is removed under vacuum. The sample is resuspended in 200»L of 50% methanol buffered with ammonium acetate.
The sample (175 »l) is loaded into a WATERS (Milbord, MA) RCM NOVA PAK C18 (100x8mm) column with the starting mobile phase of 90% A (A = 10% acetonitrile buffered with 30mM ammonium acetate to pH6.8) and 10% B (B = 90% acetonitrile buffered with 30mM ammonium acetate to pH6.8). The flow rate for the separation is 2.5ml/minute. At one minute the %B is increased to 27% in a step fashion. By 12 minutes the %B has increased in a concave hyperbolic function (curve 9) to 40% and increases in a linear manner to 60% by 22 minutes. Under these developing conditions, the retention times for the eicosanoids are: 20-hydroxyLTB₄, 4.6 minutes; transLTB₄, 10 minutes; LTB₄, 10.5 minutes; 12-HETE, 10.4 minutes; 5-HETE, 21 minutes. The HPLC system consisted of WATERS 510 pumps, 840 controller, WISP injector and 990 detector.
The eicosanoids in the samples are verified by their retention times and their UV absorbance spectra. The peaks are quantified with reference to the internal standard and their absorbance response at their maximum absorbance wavelength.

[3] = system: arachidonic acid-induced edema in mice; test: Arachidonic acid-induced mouse ear inflammation (ear swelling); assay type: in vivo, male Balb/c mice; settings: po; for ED50: mouse, read-out: AAEE(MOUSE ED50 mg/kg (po))
Procedure: In the tests used to determine activity as 5-lipoxygenase pathway inhibitors, male Balb/c mice (20-28 g), were used. All mice were obtained from Charles River Breeding Laboratories, Kingston, N.Y. Within a single experiment, mice were age matched.
Reagents were employed as follows: Compounds of Formula (I) were each used as the free base. The compounds were homogenized in 0.5% tragacanth. Compounds were administered by […] at the indicated dose in a final volume of 10 ml/kg.
Arachidonic acid in acetone (2 mg/20 »l) was applied to the inner surface of the left ear. The thickness of both ears was then measured with a dial micrometer one hour after treatment, and the data were expressed as the change in thickness (10⁻³ cm) between treated and untreated ears.
Test compounds were given orally in acid/saline at the times indicated in the text prior to the topical application of arachidonic acid.
Dermatol., 82, 367-371 (1984)].

[4] = Cytochrome P-450 inhibition (ethoxycoumarin-O-deethylase activity, phenobarbital-induced microsomes); settings: rat, liver microsomes
[5] = 5-HETE, read-out: 5-LO, IC50 (uM) 5-HETE
[6] = 12-HETE, read-out: 5-LO, IC50 (uM) 12-HETE
[7] = LTB4, read-out: 5-LO, IC50 (uM) LTB4
[8] = tLTB4, read-out: 5-LO, IC50 (uM) tLTB4

| Compound | chromatographic logD [1] | IC50 [2, 5] | IC50 [2, 6] | IC50 ([2]; 20-OH-LTR4, read-out: 5-LO, IC50 (uM) 20-OH-LTR4) | IC50 [2, 7] | IC50 [2, 8] | ED50 [3] | IC50 [4] | inhibition at 50 mg/kg ([3]; Mus musculus, 1 h, 50 mg/kg p.o., ear thickness one hour after 2 mg arachidonic acid) |
| --- | --- | --- | --- | --- | --- | --- | --- | --- | --- |
| CSc1ccc(-c2nc3n(c2-c2ccncc2)CCC3)cc1 [Compound 1, 2-(4-Methylthiophenyl)-3-(4-pyridyl)-6,7-dihydro-[5H]-pyrrolo[1,2-a]imidazole] | 2.68 | 30 µM | 60 µM | 30 µM | 30 µM | 30 µM | 20 mg/kg | 43.7 µM | – |
| C[S+]([O-])c1ccc(-c2nc3n(c2-c2ccncc2)CCC3)cc1 (stereo not shown) [Compound 2, 2-(4-Methylsulfinylphenyl)-3-(4-pyridyl)-6,7-dihydro-[5H]-pyrrolo[1,2-a]imidazole] | 0.85 | 80 µM | 80 µM | – | 80 µM | 80 µM | 44 mg/kg | 866 µM | 44% |
